Laboratory results from PubChem BioAssay (NCI).
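GI50 is the concentration that inhibits growth by half. At the TGI there is no net growth.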

Columns and labels:
Assay in all cases: growth of human tumour cells (NCI), 384-well format
786-0 renal = tested on: 786-0 renal
SK-MEL-5 melanoma = tested on: SK-MEL-5 melanoma
OVCAR-4 ovarian = tested on: OVCAR-4 ovarian
MOLT-4 leukemia = tested on: MOLT-4 leukemia
SK-MEL-28 melanoma = tested on: SK-MEL-28 melanoma
SF-295 CNS = tested on: SF-295 CNS
NCI-H23 lung = tested on: NCI-H23 lung
TK-10 renal = tested on: TK-10 renal
CAKI-1 renal = tested on: CAKI-1 renal
OVCAR-3 ovarian = tested on: OVCAR-3 ovarian
U251 glioblastoma = tested on: U251 glioblastoma
HCT-15 colon = tested on: HCT-15 colon
NCI-H322M lung = tested on: NCI-H322M lung
OVCAR-8 ovarian = tested on: OVCAR-8 ovarian
EKVX NSCLC = tested on: EKVX NSCLC
K-562 leukemia = tested on: K-562 leukemia
M14 melanoma = tested on: M14 melanoma
MDA-MB-435 melanoma = tested on: MDA-MB-435 melanoma
T-47D breast = tested on: T-47D breast
HOP-92 NSCLC = tested on: HOP-92 NSCLC
RPMI-8226 leukemia = tested on: RPMI-8226 leukemia
A549 NSCLC = tested on: A549 NSCLC
LOX IMVI melanoma = tested on: LOX IMVI melanoma
RXF 393 renal = tested on: RXF 393 renal
DU-145 prostate = tested on: DU-145 prostate
OVCAR-5 ovarian = tested on: OVCAR-5 ovarian
A498 renal = tested on: A498 renal
HOP-62 NSCLC = tested on: HOP-62 NSCLC
PC-3 prostate = tested on: PC-3 prostate
HS 578T breast = tested on: HS 578T breast
NCI-H226 lung = tested on: NCI-H226 lung
MDA-MB-468 breast = tested on: MDA-MB-468 breast
HL-60(TB) leukemia = tested on: HL-60(TB) leukemia
NCI-H522 lung = tested on: NCI-H522 lung
NCI-H460 NSCLC = tested on: NCI-H460 NSCLC
UACC-62 melanoma = tested on: UACC-62 melanoma
SF-539 CNS = tested on: SF-539 CNS
HCC-2998 colon = tested on: HCC-2998 colon
BT-549 breast = tested on: BT-549 breast
IGROV1 ovarian = tested on: IGROV1 ovarian
UO-31 renal = tested on: UO-31 renal
COLO 205 colon = tested on: COLO 205 colon
MCF7 breast = tested on: MCF7 breast
SF-268 CNS = tested on: SF-268 CNS
SW-620 colon = tested on: SW-620 colon
NCI/ADR-RES ovarian = tested on: NCI/ADR-RES ovarian
CCRF-CEM leukemia = tested on: CCRF-CEM leukemia
SNB-75 CNS = tested on: SNB-75 CNS
SK-MEL-2 melanoma = tested on: SK-MEL-2 melanoma
HCT-116 colon = tested on: HCT-116 colon
SN12C renal = tested on: SN12C renal
SK-OV-3 ovarian = tested on: SK-OV-3 ovarian
HT29 colon = tested on: HT29 colon
SNB-19 CNS = tested on: SNB-19 CNS
UACC-257 melanoma = tested on: UACC-257 melanoma
ACHN renal = tested on: ACHN renal
KM12 colon = tested on: KM12 colon
MALME-3M melanoma = tested on: MALME-3M melanoma
MDA-MB-231 breast = tested on: MDA-MB-231 breast

CNC(=O)c1cccc2cc(Oc3ccnc4cc(OCC5(N)CC5)c(OC)cc34)ccc12
GI50 ([…]-0 renal): 1.77 µM | TGI (786-0 renal): 3.49 µM | GI50 (SK-MEL-5 melanoma): 2.3 µM | TGI (SK-MEL-5 melanoma): 8.66 µM | GI50 (OVCAR-4 ovarian): 1.48 µM | TGI (OVCAR-4 ovarian): 4.04 µM | GI50 (MOLT-4 leukemia): 1.2 µM | TGI (MOLT-4 leukemia): 2.45 µM | GI50 (SK-MEL-28 melanoma): 12.1 µM | TGI (SK-MEL-28 melanoma): 24.6 µM | GI50 (SF-295 CNS): 6.14 µM | TGI (SF-295 CNS): 18.7 µM | GI50 (NCI-H23 lung): 4.73 µM | TGI (NCI-H23 lung): 16.4 µM | GI50 (TK-10 renal): 2.55 µM | TGI (TK-10 renal): 6.52 µM | GI50 (CAKI-1 renal): 2.02 µM | TGI (CAKI-1 renal): 5.35 µM | GI50 (OVCAR-3 ovarian): 2.23 µM | TGI (OVCAR-3 ovarian): 5.94 µM | GI50 (U251 glioblastoma): 3.73 µM | TGI (U251 glioblastoma): 14.9 µM | GI50 (HCT-15 colon): 3.87 µM | TGI (HCT-15 colon): 13.1 µM | GI50 (NCI-H322M lung): 6.8 µM | TGI (NCI-H322M lung): 19.4 µM | GI50 (OVCAR-8 ovarian): 4.05 µM | TGI (OVCAR-8 ovarian): 16.1 µM | GI50 (EKVX NSCLC): 3.66 µM | TGI (EKVX NSCLC): 14.8 µM | GI50 (K-562 leukemia): 1.7 µM | TGI (K-562 leukemia): 3.59 µM | GI50 (M14 melanoma): 3.97 µM | TGI (M14 melanoma): 14.3 µM | GI50 (MDA-MB-435 melanoma): 2.63 µM | TGI (MDA-MB-435 melanoma): 7.43 µM | GI50 (T-47D breast): 2.14 µM | TGI (T-47D breast): 7.39 µM | GI50 (HOP-92 NSCLC): 4.13 µM | TGI (HOP-92 NSCLC): 15.2 µM | GI50 (RPMI-8226 leukemia): 1.98 µM | TGI (RPMI-8226 leukemia): 5.13 µM | GI50 (A549 NSCLC): 4.22 µM | TGI (A549 NSCLC): 14.6 µM | GI50 (LOX IMVI melanoma): 2.41 µM | TGI (LOX IMVI melanoma): 5.84 µM | GI50 (RXF 393 renal): 1.64 µM | TGI (RXF 393 renal): 4.39 µM | GI50 (DU-145 prostate): 5.43 µM | TGI (DU-145 prostate): 17.6 µM | GI50 (OVCAR-5 ovarian): 5.37 µM | TGI (OVCAR-5 ovarian): 16.8 µM | GI50 (A498 renal): 2.5 µM | TGI (A498 renal): 6.93 µM | GI50 (HOP-62 NSCLC): 2.91 µM | TGI (HOP-62 NSCLC): 15.5 µM | GI50 (PC-3 prostate): 4.42 µM | TGI (PC-3 prostate): 16.2 µM | GI50 (HS 578T breast): 1.23 µM | TGI (HS 578T breast): 4.08 µM | GI50 (NCI-H226 lung): 1.03 µM | TGI (NCI-H226 lung): 4.73 µM | GI50 (MDA-MB-468 breast): 2.38 µM | TGI (MDA-MB-468 breast): 5.54 µM | GI50 (HL-60(TB) leukemia): 2.28 µM | TGI (HL-60(TB) leukemia): 3.75 µM | GI50 (NCI-H522 lung): 2.75 µM | TGI (NCI-H522 lung): 9.57 µM | GI50 (NCI-H460 NSCLC): 2.74 µM | TGI (NCI-H460 NSCLC): 7.12 µM | GI50 (UACC-62 melanoma): 2.37 µM | TGI (UACC-62 melanoma): 6.72 µM | GI50 (SF-539 CNS): 0.621 µM | TGI (SF-539 CNS): 4.94 µM | GI50 (HCC-2998 colon): 5.53 µM | TGI (HCC-2998 colon): 16 µM | GI50 (BT-549 breast): 1.78 µM | TGI (BT-549 breast): 8.85 µM | GI50 (IGROV1 ovarian): 5.36 µM | TGI (IGROV1 ovarian): 17.5 µM | GI50 (UO-31 renal): 3.17 µM | TGI (UO-31 renal): 10.9 µM | GI50 (COLO 205 colon): 3.22 µM | TGI (COLO 205 colon): 10.2 µM | GI50 (MCF7 breast): 2.37 µM | TGI (MCF7 breast): 10.8 µM | GI50 (SF-268 CNS): 4.31 µM | TGI (SF-268 CNS): 17.9 µM | GI50 (SW-620 colon): 4.12 µM | TGI (SW-620 colon): 15 µM | GI50 (NCI/ADR-RES ovarian): 13.3 µM | TGI (NCI/ADR-RES ovarian): 27 µM | GI50 (CCRF-CEM leukemia): 1.67 µM | TGI (CCRF-CEM leukemia): 3.23 µM | GI50 (SNB-75 CNS): 1.02 µM | TGI (SNB-75 CNS): 9.33 µM | GI50 (SK-MEL-2 melanoma): 1.89 µM | TGI (SK-MEL-2 melanoma): 4.35 µM | GI50 (HCT-116 colon): 1.98 µM | TGI (HCT-116 colon): 3.84 µM | GI50 (SN12C renal): 2.55 µM | TGI (SN12C renal): 8.63 µM | GI50 (SK-OV-3 ovarian): 3.01 µM | TGI (SK-OV-3 ovarian): 11.6 µM | GI50 (HT29 colon): 5.88 µM | TGI (HT29 colon): 17.9 µM | GI50 (SNB-19 CNS): 3.89 µM | TGI (SNB-19 CNS): 15.7 µM | GI50 (UACC-257 melanoma): 4.04 µM | TGI (UACC-257 melanoma): 14.2 µM | GI50 (ACHN renal): 1.67 µM | TGI (ACHN renal): 3.37 µM | GI50 (KM12 colon): 3.83 µM | TGI (KM12 colon): 15.1 µM | GI50 (MALME-3M melanoma): 4.05 µM | TGI (MALME-3M melanoma): 15.7 µM | GI50 (MDA-MB-231 breast): 3.64 µM | TGI (MDA-MB-231 breast): 14.4 µM
